According to patent publication US8669228B2 (Indiana University Research and Technology Corporation, priority 2007, dated 2014):
Where no end group is shown, it is not given here.

Experiment: Glucagon solubility assay (UV absorbance of supernatant after pH adjustment)
Assay type: physicochemical
Settings: for solubility relative to native glucagon: pH values of 5.5 and 7.0, after 60 hours at 25° C. (FIG. 3) or 24 hours at 25° C. then 24 hours at 4° C. (FIG. 4)

solubility relative to native glucagon | Compound | Percent Soluble (pH 7) [%]
 | Glucagon, Cys17PEG5K: Glucagon Cys17 (1-29) reacted with methoxy poly(ethyleneglycol) maleimide avg. M.W. 5000 | 94
superior solubility | CSCC[C@H](NC(=O)[C@H](CC(C)C)NC(=O)[C@H](Cc1c[nH]c2ccccc12)NC(=O)[C@H](CCC(N)=O)NC(=O)[C@@H](NC(=O)[C@H](Cc1ccccc1)NC(=O)[C@H](CC(=O)O)NC(=O)[C@H](CCC(N)=O)NC(=O)[C@H](C)NC(=O)[C@H](CCCNC(=N)N)NC(=O)[C@H](CCCNC(=N)N)NC(=O)[C@H](CO)NC(=O)[C@H](CC(=O)O)NC(=O)[C@H](CC(C)C)NC(=O)[C@H](Cc1ccc(O)cc1)NC(=O)[C@H](CCCCN)NC(=O)[C@H](CO)NC(=O)[C@H](Cc1ccc(O)cc1)NC(=O)[C@H](CC(=O)O)NC(=O)[C@H](CO)NC(=O)[C@@H](NC(=O)[C@H](Cc1ccccc1)NC(=O)[C@@H](NC(=O)CNC(=O)[C@H](CCC(N)=O)NC(=O)[C@H](CO)NC(=O)[C@@H](N)Cc1c[nH]cn1)[C@@H](C)O)[C@@H](C)O)C(C)C)C(=O)N[C@@H](CC(=O)O)C(=O)N[C@@H](CCC(=O)O)C(=O)O [D28, E29] | 
superior solubility | HSQGTFTSDYSKYLESRRAQDFVQWLMDT [D28, E15] | 
